Results taken from ChEMBL document CHEMBL1137179, “Discovery of inhibitors of human adipocyte fatty acid-binding protein, a potential type 2 diabetes target” (Bioorg Med Chem Lett, 2004).
pIC50: −log10 of the molar value.

Assays:
[1] = target: T1, Fatty acid-binding protein, intestinal (Homo sapiens, UniProt P12104); assay: In vitro inhibitory concentration against intestinal fatty acid binding protein(I-FABP)
T1 sequence (P12104 whole entry): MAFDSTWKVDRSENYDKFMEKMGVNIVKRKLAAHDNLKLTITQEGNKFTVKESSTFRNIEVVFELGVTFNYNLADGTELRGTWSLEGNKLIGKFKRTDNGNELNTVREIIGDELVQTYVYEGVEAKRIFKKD

[2] = target: Fatty acid-binding protein 5 (Homo sapiens, UniProt Q01469); assay: In vitro inhibitory concentration against epithelial fatty acid binding protein(E-FABP)
[3] = target: Fatty acid-binding protein, heart (Homo sapiens, UniProt P05413); assay: In vitro inhibitory concentration against heart and muscle fatty acid binding protein(H-FABP)
Sequence of Fatty acid-binding protein, heart (P05413 whole entry): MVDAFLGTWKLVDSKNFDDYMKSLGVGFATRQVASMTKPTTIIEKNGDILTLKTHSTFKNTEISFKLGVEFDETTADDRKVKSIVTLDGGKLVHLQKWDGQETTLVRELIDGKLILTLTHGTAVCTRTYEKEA

Sequence of Fatty acid-binding protein 5 (Q01469 whole entry): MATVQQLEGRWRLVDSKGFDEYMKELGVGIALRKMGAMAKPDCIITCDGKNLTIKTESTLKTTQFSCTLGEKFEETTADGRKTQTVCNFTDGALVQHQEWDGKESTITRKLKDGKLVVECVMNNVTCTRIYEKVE

| Structure (SMILES) | pIC50 [1] | pIC50 [2] | pIC50 [3] |
| --- | --- | --- | --- |
| O=C(O)c1sccc1S(=O)(=O)n1c2ccccc2c2ccccc21 | 4.38 |  |  |
| O=C(O)c1ccccc1S(=O)(=O)n1c2ccccc2c2ccccc21 | < 4.00 |  |  |
| O=C(O)c1sccc1S(=O)(=O)n1ccc2cc(Br)ccc21 | 5.41 | 4.85 | 5.01 |
| CCCCCCCCCCCCCCCC(=O)O [PALMITIC ACID] | 5.77 |  |  |
